Among the data in ChEMBL document CHEMBL1149555, “Synthesis and antiproliferative activity of thiazolidine analogs for melanoma” (Bioorg Med Chem Lett, 2007) are IC50 values, retold here.

Molecules are shown by their SMILES. A value given as a limit tells only on which side of the number the result lay.

Assay [1] is described as follows: Antiproliferative activity against human fibroblasts after 48 hrs by SRB assay. Type of assay: cell-based. The conditions noted are these: Fibroblast.
Assay [2] in a line: Antiproliferative activity against human WM164 cells after 48 hrs by SRB assay. Type of assay: functional, cell-based. The conditions noted are these: WM164, 48 h. On the technique in general: Sulforhodamine B stains cellular protein and so reports cell mass.
The nature of assay [3]: Antiproliferative activity against human SK-MEL-188 cells after 48 hrs by SRB assay. Type of assay: functional, cell-based. The conditions noted are these: SK-MEL-188, 48 h.

For the molecule `CCCCCCCCCCCCCCCCNC(=O)[C@@H]1CSC(c2ccc(NC(C)=O)cc2)N1C` (stereo partly specified), the IC50 – broadly, the concentration that gives 50% inhibition – in assay [1] was above 100 µM; in assay [2] it was above 100 µM; in assay [3], 29.1 µM.

As to `CCCCCCCCCCCCNC(=O)[C@@H]1CSC(c2ccc3c(c2)OCO3)N1` (stereo partly specified), the results for the IC50 in assay [1], in assay [2] and in assay [3] were 5.2 µM, 2.5 µM and 3.5 µM, respectively.

As to `CCCCCCCCCCCCCCCCNC(=O)[C@@H]1CSC(c2ccc(OC)c(OC)c2)N1` (stereo partly specified), the concentration for half-maximal inhibition (IC50) was determined as 2.1 µM in assay [1], 0.5 µM in assay [2] and 1.5 µM in assay [3].

Regarding `CCCCCCCCCCCCCCNC(=O)[C@@H]1CSC(c2ccccc2)=N1`, the results for the IC50 in assay [1], in assay [2] and in assay [3] were above 50 µM, above 50 µM and 42.1 µM, respectively.

As for `CCCCCCCCCCCCCCNC(=O)[C@@H]1CSC(c2ccc(OC)c(OC)c2)N1` (stereo partly specified), the IC50 was 2.8 µM in assay [1], 0.8 µM in assay [2] and 1.5 µM in assay [3].

Turning to `CCCCCCCCCCCCCCCCCCNC(=O)[C@@H]1CSC(c2ccc(NC(C)=O)cc2)N1` (stereo partly specified), the 50% inhibitory concentration (IC50) in assay [1] is above 60 µM; in assay [2], 11.6 µM; in assay [3], 22.3 µM.

For the molecule `CCCCCCCCCCCCCCNC(=O)[C@@H]1CSC(c2ccc(OC)c(OC)c2)=N1`, the figures for the IC50 in assay [1], in assay [2] and in assay [3] were above 50 µM, 42.9 µM and 19.1 µM, respectively.

Turning to `CCCCCCCCCCCCCCCCNC(=O)[C@@H]1CSC(c2ccccc2)N1` (stereo partly specified), the values for the half-maximal inhibitory concentration (IC50) in assay [1], in assay [2] and in assay [3] were 2.2 µM, 0.7 µM and 1.9 µM, respectively.

Take `CCCCCCCCCCCCCCNC(=O)[C@@H]1CSC(c2ccc(NC(C)=O)cc2)N1` (stereo partly specified): the half-maximal inhibitory concentration (IC50) in assay [1] amounted to 3.6 µM; in assay [2], 0.6 µM; in assay [3], 2.3 µM.

`CCCCCCCCCCCCCCCCNC(=O)[C@@H]1CSC(c2ccc3c(c2)OCO3)N1` (stereo partly specified): the results for the IC50 in assay [1], in assay [2] and in assay [3] were 5.7 µM, 1.8 µM and 1.6 µM, respectively.

For the molecule `CCCCCCCCCCNC(=O)[C@@H]1CSC(c2ccc(OC)c(OC)c2)N1` (stereo partly specified), the results for the IC50 in assay [1], in assay [2] and in assay [3] were 6.3 µM, 6.1 µM and 11.9 µM, respectively.

For the molecule `CCCCCCCCCCCCCCCCNC(=O)[C@@H]1CSC(c2ccc(N)cc2)N1` (stereo partly specified), the IC50 in assay [1] was 7.4 µM; in assay [2], 1.4 µM; in assay [3], 2.3 µM.

In the case of `CN(C)/N=N/c1[nH]cnc1C(N)=O` [DACARBAZINE], the half-maximal inhibitory concentration (IC50) in assay [2] and in assay [3] was above 100 µM in each case.

Turning to `CCCCCCCCCCNC(=O)[C@@H]1CSC(c2ccc3c(c2)OCO3)N1` (stereo partly specified), the figures for the IC50 in assay [1], in assay [2] and in assay [3] were 8.2 µM, 4.5 µM and 6.6 µM, respectively.

Consider `CCCCCCCCCCCCCCCNC(=O)[C@@H]1CSC(c2ccc(NC(C)=O)cc2)N1` (stereo partly specified), for which the results for the half-inhibitory concentration (IC50) in assay [1], in assay [2] and in assay [3] were 14.3 µM, 1 µM and 1.6 µM, respectively.

For `CCCCCCCCCCCCCCCCNC(=O)[C@@H]1CSC(c2ccc(NC(C)=O)cc2)N1` (stereo partly specified), the figures for the IC50 in assay [1], in assay [2] and in assay [3] were 19.1 µM, 0.6 µM and 2.1 µM, respectively.

Turning to `CCCCCCCCCCNC(=O)[C@@H]1CSC(c2cc(OC)c(OC)c(OC)c2)N1` (stereo partly specified), the IC50 is 6.7 µM in assay [1], 2.1 µM in assay [2] and 14.5 µM in assay [3].

On to `CCCCCCCCCCCCNC(=O)[C@@H]1CSC(c2cc(OC)c(OC)c(OC)c2)N1` (stereo partly specified), for which the IC50 in assay [1] was 2.4 µM; in assay [2], 2.4 µM; in assay [3], 2.1 µM.

Consider `CCCCCCCCCCCCCCNC(=O)[C@@H]1CSC(c2ccccc2)N1` (stereo partly specified), for which the concentration for half-maximal inhibition (IC50) was 2.8 µM in assay [1], 0.6 µM in assay [2] and 1.9 µM in assay [3].

On to `CON(C)C(=O)[C@@H]1CSC(c2ccccc2)N1` (stereo partly specified), for which the IC50 in assay [1], in assay [2] and in assay [3] was above 100 µM throughout.

Turning to `CCCCCCCCCCCCCCNC(=O)[C@@H]1CSC(c2ccc3c(c2)OCO3)N1` (stereo partly specified), the IC50 in assay [1] was determined as 4.2 µM; in assay [2], 1 µM; in assay [3] it was 1.6 µM.

`CCCCCCCCCCCCNC(=O)[C@@H]1CSC(c2ccc(NC(C)=O)cc2)N1` (stereo partly specified): the IC50 in assay [1] came to 3.5 µM; in assay [2] it was 1.2 µM; in assay [3] it was 2.4 µM.

For the molecule `CNC(=O)c1cc(Oc2ccc(NC(=O)Nc3ccc(Cl)c(C(F)(F)F)c3)cc2)ccn1` [SORAFENIB], the IC50 turned out to be 15.1 µM in assay [1], 4.9 µM in assay [2] and 5.4 µM in assay [3].

Turning to `CCCCCCCCCCCCNC(=O)[C@@H]1CSC(c2ccc(N)cc2)N1` (stereo partly specified), the IC50 stood at 4.1 µM in assay [1], 1.4 µM in assay [2] and 2.2 µM in assay [3].

For `CCCCCCCCCCCCCCNC(=O)[C@@H]1CSC(c2cc(OC)c(OC)c(OC)c2)N1` (stereo partly specified), the half-maximal inhibitory concentration (IC50) in assay [1] worked out at 2.6 µM; in assay [2] it was 1.6 µM; in assay [3], 2 µM.

Regarding `CCCCCCCCCCCCCCCCNC(=O)[C@H]1CSC(c2ccc(NC(C)=O)cc2)N1` (stereo partly specified), the half-inhibitory concentration (IC50) in assay [1] came to 22.6 µM; in assay [2], 1.4 µM; in assay [3] it was 3.2 µM.

`CCCCCCCCCCCCNC(=O)[C@@H]1CSC(c2ccc(OC)c(OC)c2)N1` (stereo partly specified): the IC50 in assay [1] is 4.5 µM; in assay [2], 1.6 µM; in assay [3], 2.9 µM.

For `CCCCCCCCC/C=C/CCCCCCCNC(=O)[C@@H]1CSC(c2ccc(NC(C)=O)cc2)N1` (stereo partly specified), the values for the IC50 in assay [1], in assay [2] and in assay [3] were 18 µM, 1.4 µM and 3.3 µM, respectively.

For the molecule `CCCCCCCCCCCCCCNC(=O)[C@H]1CSC(c2cc(OC)c(OC)c(OC)c2)N1` (stereo partly specified), the results for the half-inhibitory concentration (IC50) in assay [1], in assay [2] and in assay [3] were 4.1 µM, 1.1 µM and 2.6 µM, respectively.

In the case of `CCCCCCCCCCCCCCCCNC(=O)[C@@H]1CSC(c2cc(OC)c(OC)c(OC)c2)N1` (stereo partly specified), the IC50 in assay [1] was 2.4 µM; in assay [2] it was 0.7 µM; in assay [3], 1.8 µM.

`CCCCCCCCNC(=O)[C@@H]1CSC(c2cc(OC)c(OC)c(OC)c2)N1` (stereo partly specified): the half-inhibitory concentration (IC50) in assay [1] stood at 20.8 µM; in assay [2], 19.6 µM; in assay [3], 17.1 µM.

Regarding `CCCCCCCCCCCCCCCCCNC(=O)[C@@H]1CSC(c2ccc(NC(C)=O)cc2)N1` (stereo partly specified), the half-inhibitory concentration (IC50) is 35.8 µM in assay [1], 2.4 µM in assay [2] and 8.5 µM in assay [3].

In the case of `CCCCCCCCC/C=C\CCCCCCCNC(=O)[C@@H]1CSC(c2ccc(NC(C)=O)cc2)N1` (stereo partly specified), the IC50 in assay [1] was found to be 10.6 µM; in assay [2], 1 µM; in assay [3], 1.4 µM.

Consider `COc1cc(C2SCC3C(=O)N4C(CSC4c4cc(OC)c(OC)c(OC)c4)C(=O)N32)cc(OC)c1OC` (stereo unspecified), for which the IC50 in assay [1], in assay [2] and in assay [3] was above 50 µM each time.
